Results taken from paper PMC4014597 (PLoS ONE, 2014).

Assays:
[1] = test system: C-terminal catalytic domain of human DNMT3A (hDNMT3A); assay: DNMT3A assay (restriction-based fluorescence assay); format: biochemical; conditions: for selectivity for DNMT3A over G9a inhibition: G9a IC50 vs DNMT3A EC50
Text: (§1) DNMT3A enzyme inhibition was adapted from the restriction-based fluorescence assay protocol described in Ceccaldi et al.. Briefly, a 5'-labelled biotin oligonucleotide is hybridized to its complementary strand labelled with 6-carboxyfluorescein at the 3′-end into a 384 well microplate (black Optiplates; Perkin Elmer) pre-coated with avidin. The duplex contains a unique CpG site overlapping with a restriction site of a methylation sensitive restriction enzyme. The C-terminal catalytic domain of human DNMT3A (residues 623–908), produced as described, was added in each well (200 ng/well) and mixed with the chemical compounds at desired concentrations and freshly prepared AdoMet (20 µM final concentration) to start the reaction in a total volume of 50 µL. After 1 hour incubation at 37°C each well were washed three times with PBS, 0.05% Tween-20, 500 mM NaCl and three more times with PBST. Specific fluorescent signals were detected with the methylation-sensitive restriction enzyme HpyCH4IV (NEB) as described and measured on a Perkin Elmer Envision detector. The percentage of inhibition is reported. The formula used to calculate the percentage of inhibition is [(X-Y)/X]×100, where X is the signal determined in the absence of the inhibitor and Y is the signal obtained in the presence of the inhibitor. […] The non-linear regression fittings with sigmoidal dose-response (variable slope) were performed with GraphPad Prism 4.03 (GraphPad Software).

[2] = target: T1, C-terminal catalytic domain of human DNMT3A (hDNMT3A) (Homo sapiens, UniProt Q9Y6K1); assay: as above; format: biochemical; conditions: for inhibition at 3.2 µM: 3.2 µM compound; for inhibition at 3.2 µM / inhibition at 10 µM / inhibition at 32 µM / inhibition at 100 µM: read-out: % inhibition ± SD hDNMT3A; for inhibition at 10 µM: 10 µM compound; for inhibition at 32 µM: 32 µM compound; for inhibition at 100 µM: 100 µM compound; for EC50: catalytic domain of hDNMT3A, means of at least three experiments
T1 construct: catalytic domain of human DNMT3A (residues 623–908), produced as described; made in house
Text: as §1

human DNMT1 (hDNMT1) = target: T2, human DNMT1 (hDNMT1) (Homo sapiens, UniProt P26358); assay: DNMT1 assay (radioactive Flashplate methylation assay); format: biochemical; conditions: for inhibition at 100 µM: 100 µM compound, read-out: % inhibition ± SD hDNMT1
T2 construct: His; made in house
Procedure: His-DNMT1 (182 kDa, human) was cloned, expressed and purified as described by Lee et al.. The DNMT1 assay was performed according to Gros et al.. Briefly, the reaction was started by addition of 90 nM of DNMT1 on a mix containing the tested compound (up to 1% DMSO), 1 µM of a AdoMet/[methyl-^3H]-AdoMet mix in a ratio of 3-to-1 (isotopic dilution 1*:3) and 0.3 µM of biotinylated DNA duplex in 10 µL final volume. The reaction was incubated at 37°C for 2 h in reaction buffer (20 mM HEPES pH 7.2, 1 mM EDTA, 50 mM KCl, 25 µg/mL BSA). 8 µL are then transferred into a streptavidin-coated Flashplate PLUS (PerkinElmer) containing 190 µL of 20 µM AdoHcy (Sigma-Aldrich) in 50 mM Tris-HCl pH 7.4. The Flashplate was agitated at room temperature for 1 h, washed three times with 200 µL of 0.05% Tween-20 in 50 mM Tris-HCl pH 7.4 and read in 200 µL of 50 mM Tris-HCl pH 7.4 on TopCount NXT (PerkinElmer). Percentages of inhibition were calculated with the same formula as in DNMT3A assay.

Human G9a = target: T3, Human G9a (Homo sapiens, UniProt Q96KQ7); assay: G9a assay (3H-AdoMet filter-binding); format: biochemical; conditions: for IC50: 10-dose IC50 mode, 2-fold serial dilution starting at 400 µM
T3 sequence (Q96KQ7 786-1210 limits assumed): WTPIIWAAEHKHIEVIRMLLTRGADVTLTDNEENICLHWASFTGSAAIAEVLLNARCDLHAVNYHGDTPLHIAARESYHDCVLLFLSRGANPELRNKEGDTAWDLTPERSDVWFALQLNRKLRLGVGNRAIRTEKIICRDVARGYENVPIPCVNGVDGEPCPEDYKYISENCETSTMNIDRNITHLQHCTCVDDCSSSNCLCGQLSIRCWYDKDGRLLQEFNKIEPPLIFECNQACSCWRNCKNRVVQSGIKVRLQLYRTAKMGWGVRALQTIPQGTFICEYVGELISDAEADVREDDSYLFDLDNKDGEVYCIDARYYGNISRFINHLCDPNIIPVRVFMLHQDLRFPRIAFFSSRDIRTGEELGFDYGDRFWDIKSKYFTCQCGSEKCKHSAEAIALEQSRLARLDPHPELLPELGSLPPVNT
Procedure: The reaction buffer was 50 mM Tris-HCl, pH 8.5, 50 mM NaCl, 5 mM MgCl2, 1 mM dithiothreitol (DTT), 1 mM PMSF, and 1% DMSO. Standard substrate concentrations were 5 µM biotinylated H3 (1–21) peptide (AnaSpec) substrate and 0.1 mM AdoMet. For control compound IC50 determinations, the test compounds were diluted in DMSO and then added to the enzyme/substrate mixture in nanoliter amounts by using an acoustic technology (Echo 500; Lab-cyte). The reaction was initiated by the addition of ^3H-AdoMet, and incubated at 30°C for 1 h. The reaction was detected by a filter-binding method. Data analysis was performed using Graph Pad Prism software for curve fits, and GraFit (Erithacus) for global fit of kinetic studies.

[3] = test system: CMV-luc construct in KG-1 cells; assay: CMV-luc assay (luciferase re-expression from methylated CMV promoter); format: cell-based; conditions: 24 h
U-937 cells = assay: Cell viability by trypan blue exclusion, U-937; format: cell-based, human; conditions: U-937, 48 h; for IC50: Homo sapiens, read-out: IC50 (mean ± SD) cell viability U-937
Procedure: U-937 and RAJI cell lines were purchased from Deutsche Sammlung für Mikroorganismen und Zellkulturen (DSZM). Cells were maintained in RPMI 1640 (Lonza) supplemented with 10% fetal calf serum (Lonza) and 1% antibiotic–antimycotic (Lonza). Cells were treated with compounds at the indicated concentrations in exponential growth phase. Proliferation and viability were assessed by trypan blue exclusion analysis at the indicated time points.

T2 sequence (P26358 whole entry): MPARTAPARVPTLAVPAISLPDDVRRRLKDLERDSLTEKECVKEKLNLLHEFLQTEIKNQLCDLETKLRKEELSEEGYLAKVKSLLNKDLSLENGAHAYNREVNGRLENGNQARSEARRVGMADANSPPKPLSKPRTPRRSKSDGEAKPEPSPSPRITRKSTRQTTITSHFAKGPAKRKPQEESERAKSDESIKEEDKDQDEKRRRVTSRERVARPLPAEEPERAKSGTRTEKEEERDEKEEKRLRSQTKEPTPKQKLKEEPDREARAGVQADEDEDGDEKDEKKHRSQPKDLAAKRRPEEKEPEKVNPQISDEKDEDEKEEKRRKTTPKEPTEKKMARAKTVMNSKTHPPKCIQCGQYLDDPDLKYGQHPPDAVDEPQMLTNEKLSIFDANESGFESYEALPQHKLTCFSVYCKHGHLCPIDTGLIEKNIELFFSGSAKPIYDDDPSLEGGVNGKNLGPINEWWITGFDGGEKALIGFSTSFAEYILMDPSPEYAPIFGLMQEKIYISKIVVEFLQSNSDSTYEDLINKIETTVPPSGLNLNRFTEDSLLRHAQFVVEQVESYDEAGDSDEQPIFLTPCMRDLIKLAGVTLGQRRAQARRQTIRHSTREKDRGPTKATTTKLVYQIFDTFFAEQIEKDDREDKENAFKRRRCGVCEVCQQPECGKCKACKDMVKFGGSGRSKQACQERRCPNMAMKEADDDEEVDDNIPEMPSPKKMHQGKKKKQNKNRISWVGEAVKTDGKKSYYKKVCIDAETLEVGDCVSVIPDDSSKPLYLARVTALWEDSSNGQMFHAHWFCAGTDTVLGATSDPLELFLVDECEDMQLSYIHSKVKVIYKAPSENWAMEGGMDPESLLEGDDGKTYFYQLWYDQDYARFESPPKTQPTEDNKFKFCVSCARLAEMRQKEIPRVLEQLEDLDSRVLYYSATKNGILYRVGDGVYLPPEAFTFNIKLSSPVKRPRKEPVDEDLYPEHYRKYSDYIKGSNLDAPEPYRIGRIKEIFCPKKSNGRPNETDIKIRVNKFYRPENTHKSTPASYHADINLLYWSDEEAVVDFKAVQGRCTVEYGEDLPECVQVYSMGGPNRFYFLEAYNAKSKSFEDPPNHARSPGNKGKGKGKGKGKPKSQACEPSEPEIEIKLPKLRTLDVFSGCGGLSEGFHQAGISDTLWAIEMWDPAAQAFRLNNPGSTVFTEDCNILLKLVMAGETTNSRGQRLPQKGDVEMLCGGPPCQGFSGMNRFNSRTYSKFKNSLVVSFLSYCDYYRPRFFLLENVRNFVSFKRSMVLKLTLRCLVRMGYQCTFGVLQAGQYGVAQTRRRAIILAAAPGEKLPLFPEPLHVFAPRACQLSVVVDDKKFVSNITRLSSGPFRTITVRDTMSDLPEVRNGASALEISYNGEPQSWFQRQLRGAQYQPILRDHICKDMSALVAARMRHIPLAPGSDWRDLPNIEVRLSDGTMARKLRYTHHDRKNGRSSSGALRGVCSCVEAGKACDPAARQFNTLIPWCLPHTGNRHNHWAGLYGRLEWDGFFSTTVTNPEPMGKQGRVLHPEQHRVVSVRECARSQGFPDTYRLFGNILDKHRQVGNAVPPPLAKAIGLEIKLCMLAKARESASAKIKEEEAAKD
T1 sequence (Q9Y6K1 627-912): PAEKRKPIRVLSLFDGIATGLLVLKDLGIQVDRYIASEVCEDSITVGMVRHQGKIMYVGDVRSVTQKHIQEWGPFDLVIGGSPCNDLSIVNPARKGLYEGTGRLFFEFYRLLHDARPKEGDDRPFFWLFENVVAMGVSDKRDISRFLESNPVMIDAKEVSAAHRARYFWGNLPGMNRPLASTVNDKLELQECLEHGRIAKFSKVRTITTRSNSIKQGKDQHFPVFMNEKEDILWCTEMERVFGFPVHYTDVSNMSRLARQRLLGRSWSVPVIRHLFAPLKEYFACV

Row | SMILES | selectivity for DNMT3A over G9a inhibition [1] | inhibition at 3.2 µM [2] | inhibition at 10 µM [2] | inhibition at 32 µM [2] | inhibition at 100 µM [2] | EC50 [2] | inhibition at 100 µM (human DNMT1 (hDNMT1)) | inhibition at 0.78 µM (Human G9a) | inhibition at 1.56 µM (Human G9a) | inhibition at 3.1 µM (Human G9a) | inhibition at 6.2 µM (Human G9a) | inhibition at 25 µM (Human G9a) | inhibition at 50 µM (Human G9a) | inhibition at 100 µM (Human G9a) | inhibition at 200 µM (Human G9a) | inhibition at 400 µM (Human G9a) | IC50 (Human G9a) | fold-induction of the luciferase signal (CMV-luc) ([3]; 25 µM) | IC50 (U-937 cells) | inhibition at 12.5 µM (Human G9a) | other results
1 | CN1CCCN(c2nc(NC3CCN(Cc4ccccc4)CC3)c3ccccc3n2)CC1 [Compound 4] | > 40 fold | 16 ± 4% | 39 ± 2% | 55 ± 3% | 67 ± 3% | 10 ± 2.5 µM | 0% | 0% | 0% | 1.9% | 0% | 0% | 7.9% | 21.8% | 16.4% | 23.5% | > 400 µM | 12.5 fold | 16.6 ± 3.8 µM |  | fold-induction of the luciferase signal (CMV-luc) ([3]; 10 µM): 2.8 fold; fold-induction of the luciferase signal (CMV-luc) ([3]; 50 µM): ineffective
2 | c1ccc(CN2CCC(Nc3nc(N4CCCC4)nc4ccccc34)CC2)cc1 [Compound 10, N-(1-benzylpiperidin-4-yl)-2-(pyrrolidin-1-yl)quinazolin-4-amine] | 18 fold | 8 ± 4% | 21 ± 8% | 43 ± 6% | 70 ± 4% | 35 ± 12 µM | 47 ± 1.7% | 0.3% | 13.4% | 14.7% | 4.6% | 13% | 18.6% | 20.8% | 49.5% | 37.8% | > 400 µM | not effective | 14.7 ± 3.8 µM | 5.9% | selectivity for DNMT3A over DNMT1 ([1]; ratio of EC50 values): 4 fold; inhibition at 10 µM (human DNMT1 (hDNMT1); 10 µM compound): 6.5%; inhibition at 32 µM (human DNMT1 (hDNMT1); 32 µM compound): 18%; EC50 (human DNMT1 (hDNMT1); means of at least three experiments): 144 ± 35 µM; fold-induction of the luciferase signal (CMV-luc) ([3]; 5 µM): 2/3
3 | c1ccc(CN2CCC(Nc3nc(N4CCN(c5ccccn5)CC4)nc4ccccc34)CC2)cc1 [Compound 13] | > 40 fold | 8 ± 1% | 19 ± 13% | 52 ± 5% | 62 ± 3% | 12 ± 4 µM | 0% | 9.4% | 21.6% | 11% | 16.7% | 11.1% | 27.2% | 24.9% | 29.2% | 14% | > 400 µM | not effective | 18.8 ± 1.2 µM | 0% | fold-induction of the luciferase signal (CMV-luc) ([3]; 5 µM): 2/3
4 | c1ccc(CN2CCC(Nc3nc(N4CCN(c5ccccc5)CC4)nc4ccccc34)CC2)cc1 [Compound 14, N-(1-benzylpiperidin-4-yl)-2-(4-phenylpiperazin-1-yl)quinazolin-4-amine] | > 40 fold | 13 ± 2% | 40 ± 4% | 54 ± 3% | 63 ± 4% | 9 ± 2 µM | 0% | 17.3% | 13.5% | 0% | 4.2% | 10.6% | 16.5% | 22.4% | 23.8% | 24% | > 400 µM | 7.5 fold | 4.4 ± 1.4 µM | 21.3% | fold-induction of the luciferase signal (CMV-luc) ([3]; 5 µM): 2/3; fold-induction of the luciferase signal (CMV-luc) ([3]; 50 µM): ineffective; antiproliferative potency compared to SGI-1027, fold less efficient (U-937 cells): 2.6 fold
